Test results published in US12486271B2, “Solid forms of a toll-like receptor modulator” (GILEAD SCIENCES, INC., priority 2014, dated 2025).

Tests used:
[1] = Variable temperature XRD (VT XRD) experiment: form stability on cooling; assay type: physicochemical; details: cooled to 25° C. after generation by heating
Description: X-ray Powder Diffraction (XRPD). The Rigaku Smart-Lab® X-ray diffraction system was configured for reflection BraggBrentano geometry using a line source X-ray beam. The x-ray source is a Cu Long Fine Focus tube that was operated at 40 kV and 44 mA. That source provides an incident beam profile at the sample that changes from a narrow line at high angles to a broad rectangle at low angles. Beam conditioning slits were used on the line X-ray source to ensure that the maximum beam size is less than 10 mm both along the line and normal to the line. The Bragg-Brentano geometry is a para-focusing geometry controlled by passive divergence and receiving slits with the sample itself acting as the focusing component for the optics. The inherent resolution of Bragg-Brentano geometry is governed in part by the diffractometer radius and the width of the receiving slit used. Typically, the Rigaku Smart-Lab is operated to give peak widths of 0.1°2θ or less. The axial divergence of the X-ray beam is controlled by 5.0-degree Soller slits in both the incident and diffracted beam paths. Powder samples were prepared in a low background Si holder using light manual pressure to keep the sample surfaces flat and level with the reference surface of the sample holder. The single-crystal, Si, low-background holder has a small circular recess (7 mm diameter and about 1 mm depth) that holds between 5 and 10 mg of powdered material. Each sample was analyzed from 2 to 40°2θ using a continuous scan of 3°2θ per minute with an effective step size of 0.02°2θ. Form III was generated at 138° C. from Form I in a variable temperature XRD (VT XRD) experiment. […] Form III is characterized by the X-ray powder diffraction pattern in FIG. 9, and the differential scanning calorimetry plot in FIG. 11 showing endotherms at about 181 and 271° C. (decomposition). Form IV was generated between 95 and 110° C. from Form II in a variable temperature XRD experiment. […] is characterized by the X-ray powder diffraction pattern in FIG. 13.

[2] = tested on: HCV; details: once daily 7-day treatment, HCV infected patients; cited from earlier work
[3] = Competition slurry experiment of Form I and Form III in methanol; assay type: physicochemical; details: 10 mg of each of Form I and Form III in methanol

SMILES | Solid form stability when cooled to 25° C. in variable temperature XRD [1] | Plasma virus concentrations [2] | Solid form stability when cooled to 25° C. in variable temperature XRD ([1]; listed as Compound I Form III) | Time for conversion of Form III back to Form I in competition slurry [3]
CCCCOc1nc(N)c2c(n1)N(Cc1cccc(CN3CCCC3)c1)CC(=O)N2 [Form IV, 4-amino-2-butoxy-8-(3-(pyrrolidin-1-ylmethyl)benzyl)-7,8-dihydropteridin-6(5H)-one] | converts back to Form II when cooled to 25 °C | – | – | –
Nc1nc(=O)c2sc(=O)n([C@@H]3O[C@H](CO)[C@@H](O)[C@H]3O)c2[nH]1 [isatoribine] | – | reduces plasma virus concentrations | – | –
CCCCOc1nc(N)c2c(n1)N(Cc1cccc(CN3CCCC3)c1)CC(=O)N2 [Form III, 4-amino-2-butoxy-8-(3-(pyrrolidin-1-ylmethyl)benzyl)-7,8-dihydropteridin-6(5H)-one] | stable when cooled to 25 °C and does not convert back to Form I | – | remains as Form III | ≤ 2 weeks
